# Source: publication PMC10762035, “Molecular basis of human trace amine-associated receptor 1 activation” (Nature Communications, 2024)
# Where a chain is given by its changes, count along the chain named. Several values for one entry are separate records, joined by “and”; a condition that tells them apart may be missing. Equal entries are not always repeated. Where two headings read alike, the source gives them in different places.
# Tests used:
# hTA1 F195T = molecular target: T1, hTA1 F195T (Homo sapiens, UniProt Q96RJ0, F195T); assay: GloSensor cAMP accumulation assay, F195T mutant; format: cell-based;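 note: cells transiently co-expressing HA-FLAG-tagged hTA1 and the GloSensor cAMP biosensor, luminescence read 30 min after agonist addition at room temperature, concentration-response fitted by nonlinear regression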
# T1 construct: expressed in transfected cells; host or cells: HEK293T
# T1 sequence (Q96RJ0 1-339 F195T): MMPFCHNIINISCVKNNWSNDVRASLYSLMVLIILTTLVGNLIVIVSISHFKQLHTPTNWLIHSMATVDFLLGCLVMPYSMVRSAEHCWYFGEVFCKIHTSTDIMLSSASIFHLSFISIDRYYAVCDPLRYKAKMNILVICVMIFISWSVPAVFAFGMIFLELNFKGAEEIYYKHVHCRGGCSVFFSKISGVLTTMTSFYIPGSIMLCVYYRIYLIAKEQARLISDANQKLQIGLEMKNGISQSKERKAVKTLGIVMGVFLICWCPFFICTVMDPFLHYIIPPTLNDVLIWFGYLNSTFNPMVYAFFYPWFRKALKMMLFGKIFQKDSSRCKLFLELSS
# hTA1 C88S = molecular target: T2, hTA1 C88S (Homo sapiens, UniProt Q96RJ0, C88S); assay: GloSensor cAMP accumulation assay, C88S mutant; format: cell-based; settings: C88S
# T2 construct: expressed in transfected cells; host or cells: HEK293T
# T2 sequence (Q96RJ0 1-339 C88S): T1 sequence (Q96RJ0 1-339 F195T) with C88S, T195F
# hTA1 T194A = molecular target: T3, hTA1 T194A (Homo sapiens, UniProt Q96RJ0, T194A); assay: GloSensor cAMP accumulation assay, T194A mutant; settings: for cAMP accumulation response, individual replicate values of the concentration-response curve: hTA1 T194A, log[Agonist], Supplementary Figure 5 source data
# T3 sequence (Q96RJ0 1-339 T194A): T1 sequence (Q96RJ0 1-339 F195T) with T194A, T195F
# hTA1 C96S = molecular target: T4, hTA1 C96S (Homo sapiens, UniProt Q96RJ0, C96S); assay: GloSensor cAMP accumulation assay, C96S mutant; format: cell-based; settings: log[Compound]
# T4 construct: expressed in transfected cells; host or cells: HEK293T
# T4 sequence (Q96RJ0 1-339 C96S): T1 sequence (Q96RJ0 1-339 F195T) with C96S, T195F
# hTA1 R83H = molecular target: T5, hTA1 R83H (Homo sapiens, UniProt Q96RJ0, R83H); assay: GloSensor cAMP accumulation assay, R83H mutant; format: cell-based;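 note: cells transiently co-expressing hTA1 and a cAMP GloSensor, luminescence read 30 min after agonist addition at room temperature, concentration–response fitted by non-linear regression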
# T5 construct: expressed in transfected cells; host or cells: HEK293T
# T5 sequence (Q96RJ0 1-339 R83H): T1 sequence (Q96RJ0 1-339 F195T) with R83H, T195F
smiles,measurement,setting,value
CCc1[nH]nc(C(=O)Nc2ccc([C@H]3CNCCO3)cc2)c1C [ralmitaront],"ΔpEC50 values (each mutant value - WT average), Mean","hTA1 F195T; F195T mutant minus WT average, Figure 5B",0.04071 and 0.07112
same,"Emax values, Mean","hTA1 F195T; F195T mutant, Figure 5B, β-PEA = 100, each row one independent experiment (3 replicates)",86.6537
same,Emax,"hTA1 F195T; F195T mutant, Figure 5B, β-PEA = 100, each row one independent experiment (3 replicates), read-out: Emax values, Mean",67.7%
same,Emax,"hTA1 F195T; F195T, n=2, read-out: Span ± SEM (Emax normalized to β-PEA)",77.2 ± 9.48%
same,Emax values,hTA1 C88S; Mean of fit per experiment,92.8994 and 62.9388
same,Emax,"hTA1 C88S; n=2, read-out: Span ± SEM (Emax normalized to β-PEA)",77.9 ± 15%
same,Emax,"hTA1 C88S; relative to β-PEA, read-out: Emax",77.9%
same,"Emax values, Mean","hTA1 T194A; T149A (so in the source), single experiments (3 replicates each), β-PEA = 100",41.3499 and 73.0935 and 32.2156
same,"cAMP accumulation response, individual replicate values of the concentration-response curve",hTA1 T194A; M = -7.522,13.1191 and 7.983 and 9.958 and 19.2742 and 14.6569 and 26.511
same,"cAMP accumulation response, individual replicate values of the concentration-response curve",hTA1 T194A; M = -8,2.846 and 8.97 and 3.241 and 12.5702 and 15.1897 and 10.4391
same,"cAMP accumulation response, individual replicate values of the concentration-response curve",hTA1 T194A; M = -8.522,0.8706 and -0.5123 and 0.673 and 2.359 and 3.025 and 2.8472
same,"cAMP accumulation response, individual replicate values of the concentration-response curve",hTA1 T194A; M = -9,-1.105 and -0.3148 and -1.895 and 1.693 and 2.048 and 2.27
same,"cAMP accumulation response, individual replicate values of the concentration-response curve",hTA1 T194A; M = -9.522,-1.895 and -1.698 and -1.5 and -0.7934 and 0.4941 and -0.3494
same,"cAMP accumulation response, individual replicate values of the concentration-response curve",hTA1 T194A; M = -10,-0.9074 and -1.105 (2×) and -0.2606 and -0.1274 and 0.9825
same,"cAMP accumulation response, individual replicate values of the concentration-response curve",hTA1 T194A; M = -10.522,-2.29 and -1.105 (2×) and -0.971 and -0.5714 and -0.1274
same,"cAMP accumulation response, individual replicate values of the concentration-response curve",hTA1 T194A; M = -11,-1.105 (2×) and -0.5123 and -0.1274 and -0.527 and -0.3938
same,"cAMP accumulation response, individual replicate values of the concentration-response curve",hTA1 T194A; M = -11.522,-1.5 and -0.9074 and -1.895 and -0.4826 and 0.2722 and -0.3494
same,"cAMP accumulation response, individual replicate values of the concentration-response curve",hTA1 T194A; M = -12,-1.105 (2×) and -0.5123 and -0.8378 and -0.9266 and 0.05017
same,"cAMP accumulation response, individual replicate values of the concentration-response curve",hTA1 T194A; M = -12.522,-0.5123 and -1.105 (2×) and -0.527 and 0.05017 and -0.6158
same,Emax,"hTA1 T194A; read-out: Span ± SEM (Emax normalized to β-PEA), T194A",48.9 ± 20.4%
same,Normalized Luminescence Counts,"hTA1 C96S; C96S, M = -5, single replicates (N=2)",1.4045 and -2.55 and -5.186 and -2.698 and 26.3511 and -6.571
same,Normalized Luminescence Counts,"hTA1 C96S; C96S, M = -5.522, single replicates (N=2)",-3.209 and -4.527 and -5.845 and -4.6346 and 8.922 and -0.7614
same,Normalized Luminescence Counts,"hTA1 C96S; C96S, M = -6, single replicates (N=2)",-3.209 and -2.55 and -5.186 and 8.922 and 1.175 and 18.6047
same,Normalized Luminescence Counts,"hTA1 C96S; C96S, M = -6.522, single replicates (N=2)",-5.186 (2×) and -3.209 and -6.571 and -12.381 and 39.9073
same,Normalized Luminescence Counts,"hTA1 C96S; C96S, M = -7, single replicates (N=2)",-5.845 and -1.232 and -3.868 and 3.112 and -12.381 and 8.922
same,Normalized Luminescence Counts,"hTA1 C96S; C96S, M = -7.522, single replicates (N=2)",-5.845 and -2.55 and -6.504 and 10.8582 (2×) and -6.571
same,Normalized Luminescence Counts,"hTA1 C96S; C96S, M = -8, single replicates (N=2)",-1.232 and -0.5726 and -2.55 and 20.5413 and -0.7614 and 37.9707
same,Normalized Luminescence Counts,"hTA1 C96S; C96S, M = -8.522, single replicates (N=2)",-1.891 (2×) and -3.209 and -0.7614 (2×) and 14.7315
same,Normalized Luminescence Counts,"hTA1 C96S; C96S, M = -9, single replicates (N=2)",-3.209 and -0.5726 and -2.55 and 6.985 and 8.922 and 5.048
same,Normalized Luminescence Counts,"hTA1 C96S; C96S, M = -9.522, single replicates (N=2)",-3.209 and -3.868 and -1.232 and 24.4145 and 3.112 and -8.508
same,Normalized Luminescence Counts,"hTA1 C96S; C96S, M = -10, single replicates (N=2)",-3.868 and -0.5726 and -1.232 and -0.7614 and -16.2542 (2×)
same,Normalized Luminescence Counts,"hTA1 C96S; C96S, M = -10.522, single replicates (N=2)",-2.55 (2×) and -1.232 and -6.571 and -22.0641 and -10.4444
same,Normalized Luminescence Counts,"hTA1 C96S; C96S, M = -11, single replicates (N=2)",0.7455 and 2.064 and -1.232 and 20.5413 and -12.381 and -10.4444
same,Normalized Luminescence Counts,"hTA1 C96S; C96S, M = -11.522, single replicates (N=2)",0.7455 and 3.382 and 1.4045 and 16.6681
same,Normalized Luminescence Counts,"hTA1 C96S; M = -11.522, single replicates, mutant block above C178S",-0.2239 and -0.1784 and -0.4742 and 3.153 and 1.07 and 2.833
same,Normalized Luminescence Counts,"hTA1 C96S; M = -12, single replicates, mutant block above C178S",-0.6336 and -0.2466 and -0.7474 and 2.192 and 1.657 and 3.26
same,Normalized Luminescence Counts,"hTA1 C96S; M = -12.522, single replicates, mutant block above C178S",-0.7701 (2×) and -0.4515 and 1.764 and 0.7492 and 1.497
same,ΔEmax values (each mutant value - WT average),hTA1 R83H; R83H mutant minus WT average,-30.9711
same,"Emax values, Mean","hTA1 R83H; R83H mutant, β-PEA = 100, each line an independent experiment, 3 replicates",9.143 and -4.118
same,Emax,"hTA1 R83H; R83H, n=2, read-out: Span ± SEM (Emax normalized to β-PEA)",2.51 ± 6.63%
